Experimental data published in patent US20160089391A1, “Molecular Targets for Cardiovascular Disease” (Temple University-of the Commonwealth System of Higher …, priority 2014, published 2016).

Tested on: aorta of HHcy and HHcy/HG Cbs−/+ mice
Experiment: Endothelium-dependent vascular relaxation to ACh in thoracic aorta after in vivo calpain inhibitor administration
Set-up: species or system mouse
Details: 2 mg/kg BW i.p. daily for 2 weeks, p<0.05
Protocol: Images (Left Panel) and quantification (Right Panel) showing HHcy and HG activates calpain in mouse aortic endothelial cells (MAECs, P0) isolated from CBS^−/+ mice (FIG. 3A). Calpain activity was measured in intact MAECs by the fluorescent substrate t-BOC-Leu-Met-CMAC (T-BOC, 10 μmol/L, 30 min). In FIG. 3B, calpain inhibitors rescued endothelium-dependent vascular relaxation to ACh in the aorta of HHcy CBS^−/+ and HHcy/HG CBS^−/+ mice in the presence of calpain inhibitors in vivo (Left Panel) and ex vivo (Right Panel). Left Panel: Calpain inhibitor MDL28170 (MDL, Sigma #M6690) was administrated in vivo by i.p. injection (2 mg/kg/day, 2 weeks). Right Panel: The arterial rings were incubated with calpain inhibitors: MDL, calpeptin and N-Acetyl-Leu-Leu-Met-CHO (ALLM, 20 μmol/L for all, Enzo life Sciences, PI-100-0005) for 1 hr. […]
Endothelial function was assessed in the mouse thoracic aorta using a multiple-wire myograph (DMT 610) (Cheng et al., 2011, Blood 118:1998-2006; Cheng et al., 2007, Can J Physiol Pharmacol 85:404-412; Cheng et al., 2001, Hypertension 37:433-439). […]

## MDL28170
  endothelial function (endothelium-dependent vascular relaxation to ACh): largely improved
